target: T1, SUMO (Homo sapiens, UniProt Q9UBT2); assay: SUMO activity (Table I, biological activities); type: biochemical; parameters: key: + (less active); ++ (active); +++ (most active)
T1 sequence (Q9UBT2 1-640): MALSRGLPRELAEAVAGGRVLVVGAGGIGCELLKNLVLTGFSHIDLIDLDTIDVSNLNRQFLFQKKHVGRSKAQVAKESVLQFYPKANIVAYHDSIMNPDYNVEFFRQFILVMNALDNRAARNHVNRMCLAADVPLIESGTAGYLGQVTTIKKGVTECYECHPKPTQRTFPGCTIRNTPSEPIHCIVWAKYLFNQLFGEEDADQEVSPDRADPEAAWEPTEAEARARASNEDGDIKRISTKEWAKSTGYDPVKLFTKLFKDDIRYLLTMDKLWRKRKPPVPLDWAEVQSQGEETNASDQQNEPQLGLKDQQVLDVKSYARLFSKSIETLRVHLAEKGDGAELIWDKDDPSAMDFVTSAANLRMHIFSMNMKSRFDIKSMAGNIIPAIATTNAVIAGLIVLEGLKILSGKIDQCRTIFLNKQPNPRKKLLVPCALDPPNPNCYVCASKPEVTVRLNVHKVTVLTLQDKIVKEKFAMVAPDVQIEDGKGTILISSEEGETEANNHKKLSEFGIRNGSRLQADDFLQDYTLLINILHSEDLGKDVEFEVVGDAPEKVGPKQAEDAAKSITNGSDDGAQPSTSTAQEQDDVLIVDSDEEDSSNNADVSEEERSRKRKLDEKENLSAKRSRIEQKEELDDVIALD
T1 sequence (Q9UBE0 1-346 partner): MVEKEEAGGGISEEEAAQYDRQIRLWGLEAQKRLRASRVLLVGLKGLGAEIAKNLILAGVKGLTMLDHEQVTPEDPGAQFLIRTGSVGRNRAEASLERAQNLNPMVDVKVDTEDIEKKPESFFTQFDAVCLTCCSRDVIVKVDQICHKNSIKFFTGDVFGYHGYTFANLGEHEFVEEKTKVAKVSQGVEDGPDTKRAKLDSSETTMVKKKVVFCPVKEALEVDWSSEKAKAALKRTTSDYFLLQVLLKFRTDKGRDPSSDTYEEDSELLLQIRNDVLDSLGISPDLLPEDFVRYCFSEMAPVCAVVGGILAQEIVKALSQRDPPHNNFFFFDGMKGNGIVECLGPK

Row | SMILES | SUMO
1 | COC(=O)C1=C(C(=O)NC2CCN(c3ccccc3)CC2)C2C=CC1(C(Cc1ccccc1)Nc1ccccc1)O2 (centres unmarked) [Compound 290] | +
2 | COC(=O)C1=C(C(=O)NNc2ccccc2)C2(C)C=CC1(C(Cc1ccccc1)Nc1ccccc1)O2 (centres unmarked) [Compound 295] | ++
3 | COC(=O)C1=C(C(=O)OC)C2(C(Nc3ccccc3)C3CCOCC3)C=CC1O2 (centres unmarked) [Compound 192] | ++
4 | COC(=O)C1=C(C(=O)OC)C2(C(Oc3ccccc3)c3ccc(CN4CCOCC4)cc3)C=CC1O2 (centres unmarked) [Compound 495] | ++
5 | COC(=O)C1=C(C(=O)OC)C2(C(Cc3ccccc3Cl)Nc3ccccc3)CCC1O2 (centres unmarked) [Compound 689] | +
6 | COC(=O)C1=C(C(=O)OC)C2(C(Cc3ccccc3)Oc3cccc(CO)c3)C=CC1O2 (centres unmarked) [Compound 520] | ++
7 | C=CC(C)(C)C(Nc1ccccc1)C12C=CC(O1)C(C(=O)OC)=C2C(=O)OC (centres unmarked) [Compound 188] | ++
8 | COC(=O)C1=CC2(C(Cc3ccccc3)N(C)c3ccccc3)C=CC1O2 (centres unmarked) [Compound 284] | ++
9 | CCCNC(=O)C1=C(C(=O)NCCC)C2(C(Cc3ccccc3)Nc3ccccc3)C=CC1O2 (centres unmarked) [Compound 157] | +
10 | COC(=O)C1=C(C(=O)Nc2ccc(C)c(F)c2)C2C=CC1(C(Cc1ccccc1)Oc1ccccc1)O2 (centres unmarked) [Compound 347] | ++
11 | COC(=O)C1=C(C(N)=O)C2C=CC1(C(Cc1ccccc1)Nc1cc(F)cc(F)c1)O2 (centres unmarked) [Compound 207] | +
12 | COC(=O)C1=C(C(=O)NC2CCN(C)CC2)C2(C)C=CC1(C(Cc1ccccc1)Nc1ccccc1)O2 (centres unmarked) [Compound 268] | +
13 | CCC12C=CC(C(Cc3ccccc3)Nc3ccccc3)(O1)C(C(=O)OC)=C2C(=O)OC (centres unmarked) [Compound 629] | ++
14 | CCOC(=O)C1=C(C(=O)NC2CCN(C)CC2)C2(CO)C=CC1(C(Cc1ccccc1)Nc1ccccc1)O2 (centres unmarked) [Compound 269] | ++
15 | COC(=O)C1=C(C(=O)OC)C2(C(Cc3ccccc3Cl)N[S@+]([O-])C(C)(C)C)CCC1O2 (some centres unmarked) [Compound 694] | ++
16 | CCOC(=O)C1=C(C(=O)OCC)C2(C(Cc3ccccc3)Nc3cc(F)cc(F)c3)C=CC1O2 (centres unmarked) [Compound 234] | ++
17 | COC(=O)C1=C(C(=O)O)C2C=CC1(C(Cc1ccccc1)Nc1cc(F)cc(F)c1)O2 (centres unmarked) [Compound 203] | ++
18 | COC(=O)C1=C(C(=O)OC)C2(C(CCCN3CCOCC3)Nc3ccccc3)C=CC1O2 (centres unmarked) [Compound 193] | +
19 | COC(=O)C1=C(C(=O)N2CCN(C)CC2)C2C=CC1(C(Cc1ccccc1)Nc1ccccc1)O2 (centres unmarked) [Compound 164] | +
20 | COC(=O)C1=C(C(=O)Nc2ccc(OC)cc2)C2C=CC1(C(Cc1ccccc1)Oc1ccc(F)cc1)O2 (centres unmarked) [Compound 479] | ++
21 | COC(=O)C1=C(C(=O)Nc2ccncc2)C2C=CC1(C(Cc1ccccc1)Nc1cc(F)cc(F)c1)O2 (centres unmarked) [Compound 206] | +
22 | COC(=O)C1=C(C(=O)NCCCCCNC(=O)OCC2c3ccccc3-c3ccccc32)C2C=CC1(C(Cc1ccccc1)Nc1cc(F)cc(F)c1)O2 (centres unmarked) [Compound 244] | +
23 | CCOC(=O)C1=C(C(=O)OCC)C2(C(Cc3ccccc3)Nc3ccccc3)C=CC1O2 (centres unmarked) [Compound 232] | +++
24 | CCOC(=O)C1=C(C(=O)Nc2cccc(F)c2C)C2C=CC1(C(Nc1ccccc1)c1ccc(CN3CCOCC3)cc1)O2 (centres unmarked) [Compound 603] | ++
25 | COC(=O)C1=C(C(=O)NCCN(C)C)C2C=CC1(C(Cc1ccccc1Cl)Nc1ccc(F)cc1)O2 (centres unmarked) [Compound 688] | +++
26 | COC(=O)C1=C(C(=O)NC2CCN(C)CC2)C2CCC1(C(Cc1ccccc1)Nc1cc(F)cc(F)c1)O2 (centres unmarked) [Compound 303] | ++
27 | CCOc1cccc(NC(Cc2ccccc2)C23C=CC(O2)C(C(=O)NC)=C3C(=O)OC)c1 (centres unmarked) [Compound 250] | ++
28 | COC(=O)C1=C(C(=O)Nc2ccc(C)c(F)c2)C2C=CC1(C1OCCO1)O2 (centres unmarked) [Compound 485] | +

Second part, the molecule after the results:

Row | SUMO | SMILES
29 | ++ | COC(=O)C1=C(C(=O)OC)C2(C(Cc3ccc(CCO)cc3)Nc3ccccc3)C=CC1O2 (centres unmarked) [Compound 664]
30 | ++ | COC(=O)C1=C(C(=O)OC)C2(C(Cc3ccc(Br)cc3)Nc3ccccc3)C=CC1O2 (centres unmarked) [Compound 652]
31 | +++ | COC(=O)C1=C(C(=O)OC)C2(C(Nc3ccccc3)c3ccc4ccccc4c3)C=CC1O2 (centres unmarked) [Compound 632]
32 | ++ | COC(=O)C1=C(C(=O)OC)C2(C(Cc3ccc(C(C)C)cc3)Nc3ccccc3)C=CC1O2 (centres unmarked) [Compound 670]
33 | ++ | COC(=O)C1=C(C(=O)NC(C)C)C2C=CC1(C(Cc1ccccc1)Nc1ccccc1)O2 (centres unmarked) [Compound 153]
34 | ++ | COC(=O)C1=C(C(=O)OC)C2(C(Cc3ccc(C4CC4)cc3)Nc3ccccc3)C=CC1O2 (centres unmarked) [Compound 693]
35 | ++ | COC(=O)C1=C(C(=O)OC)C2(C(Cc3ccccc3C#N)Nc3ccccc3)C=CC1O2 (centres unmarked) [Compound 660]
36 | +++ | COC(=O)C1=C(C(=O)OC)C2(C(Cc3ccc(Cl)c(Cl)c3)Nc3ccccc3)C=CC1O2 (centres unmarked) [Compound 642]
37 | ++ | COC(=O)C1=C(C(=O)OC)C2(C(Cc3cccnc3Cl)Nc3ccccc3)C=CC1O2 (centres unmarked) [Compound 668]
38 | +++ | COC(=O)C1=C(C(=O)OC)C2(C(Nc3ccccc3)c3cccc4ccccc34)C=CC1O2 (centres unmarked) [Compound 637]
39 | + | COC(=O)C1=C(C(=O)OC)C2(C(Cc3ccc(Nc4ccccc4)cc3)Nc3ccccc3)C=CC1O2 (centres unmarked) [Compound 683]
40 | ++ | COC(=O)C1=C(C(=O)OC)C2(C(Cc3ccc(C#N)cc3)Nc3ccccc3)C=CC1O2 (centres unmarked) [Compound 643]
41 | ++ | C=CCC(Nc1ccccc1)C12C=CC(O1)C(C(=O)OC)=C2C(=O)OC (centres unmarked) [Compound 407]
42 | ++ | COC(=O)C1=C(C(=O)OC)C2(C(Cc3ccc(CC(C)C)cc3)Nc3ccccc3)C=CC1O2 (centres unmarked) [Compound 656]
43 | + | COC(=O)C1=C(C(=O)OC)C2(C(Cc3cccc(-c4ccccc4)c3)Nc3ccccc3)C=CC1O2 (centres unmarked) [Compound 682]
44 | ++ | COC(=O)C1=C(C(=O)OC)C2(C(Cc3ccc(-c4ccccc4)cc3)Nc3ccccc3)C=CC1O2 (centres unmarked) [Compound 677]
45 | ++ | COC(=O)C1=C(C(=O)OC)C2(C(Cc3ccccc3)Nc3ccccc3F)C=CC1O2 (centres unmarked) [Compound 270]
46 | + | COC(=O)C1=C(C(=O)OC)C2(C(Cc3ccc(NC(C)C)cc3)Nc3ccccc3)C=CC1O2 (centres unmarked) [Compound 684]
47 | +++ | COC(=O)C1=C(C(=O)OC)C2(C(Cc3ccc(-c4cc[nH]n4)cc3)Nc3ccccc3)C=CC1O2 (centres unmarked) [Compound 698]
48 | ++ | COC(=O)C1=C(C(=O)OC)C2(C(Cc3ccc(Cl)nc3)Nc3ccccc3)C=CC1O2 (centres unmarked) [Compound 649]
49 | ++ | COC(=O)C1=C(C(=O)OC)C2(C(Cc3ccc(F)cc3F)Nc3ccccc3)C=CC1O2 (centres unmarked) [Compound 639]
50 | ++ | COC(=O)C1=C(C(=O)OC)C2(C(Cc3ccccc3)Nc3ccc(F)cc3)C=CC1O2 (centres unmarked) [Compound 273]
51 | ++ | CCCNC(=O)C1=C(C(=O)OC)C2(C(Cc3ccccc3)Nc3ccccc3)C=CC1O2 (centres unmarked) [Compound 150]
52 | ++ | COC(=O)C1=C(C(=O)OC)C2(C(Cc3c(Cl)cccc3Cl)Nc3ccccc3)C=CC1O2 (centres unmarked) [Compound 657]
53 | ++ | COC(=O)C1=C(C(=O)NCCO)C2C=CC1(C(Cc1ccccc1)Nc1ccccc1)O2 (centres unmarked) [Compound 152]
